pKi: −log10 of the molar value. “Also recorded” adds a separate entry of the source.
Experiments:
[1] = varies with the pH of the urine; cited from earlier work
[2] = Noribogaine-methadone interaction study: mortality and postdose observations after oral dosing; conditions: male, Sprague Dawley, rat, in vivo, po, methadone LD50, rats, oral
male Sprague Dawley rats = assay: as above; conditions: rats; for Number Dead after Methadone: 10 dosed
[3] = system: healthy, drug-free male volunteers; assay: Pupillometry (pupillary miosis) after single oral dose; type: in vivo, human; conditions: single oral 3, 10, 30 or 60 mg, up to 216 hours post-dosing
Method: Pulse oximetry and capnography data were collected continuously using a GE Carescape B650 monitoring system from 2 hours prior to dosing and until six hours after dosing, and thereafter at 12, 24, 48 and 72 hours post-dosing. […] Pupillary miosis was assessed by pupillometry.

[4] = system: healthy, drug-free male volunteers; assay: Cold pressor test (analgesic effect); type: in vivo, human; conditions: single oral 3-60 mg; duration of hand immersion and VAS pain scores vs placebo
Method: Analgesic effect was assessed based on duration of hand immersion in ice water and on visual analog scale (VAS) pain scores upon hand removal from the water bath.
(§1) Safety and tolerability of noribogaine were tested in the group of volunteers from Example 2. […] Safety evaluations included clinical monitoring, recording of adverse events (AEs), safety laboratory tests, vital signs, ECG telemetry from −2 h to 6 h after dosing, and 12-lead electrocardiograms (ECGs) up to 216 hours post-dosing.

[5] = system: healthy, drug-free male volunteers; assay: Safety and tolerability: adverse events, vital signs, ECG; type: in vivo, human
Method: as §1

[6] = system: opioid-dependent participants; assay: Efficacy trial: time to resumption of opioid substitution treatment (OST); type: in vivo, human
Method: (§2) The efficacy of noribogaine in humans was evaluated in opioid-dependent participants in a randomized, placebo-controlled, double-blind trial. […] See U.S. Provisional Application No. 61/852,485, filed Mar. 15, 2013, which is incorporated herein by reference in its entirety.
(§3) In the first cohort, six patients were orally administered a single dose of 60 mg noribogaine, and three patients received placebo. In the second cohort, five patients were orally administered a single dose of 120 mg noribogaine, and three patients received placebo.

[7] = system: opioid-dependent participants; assay: QT interval prolongation in the efficacy trial; type: in vivo, human
Method: as §2, §3

mu receptor = conditions: Pearl et al., Brain Research, 675:342-344 (1995); read-out: affinity constant (K value) for the mu receptor; cited from earlier work
[8] = Ascending single-dose pharmacokinetics of noribogaine and noribogaine glucuronide (plasma, urine; LCMSMS); conditions: for CL/F / AUC0-216 / Cmax / Tmax / t1/2 / AUC0-∞: mean (SD)
[9] = oral, noribogaine 50 mg/kg then methadone 0 mg/kg (vehicle)
[10] = oral, noribogaine 150 mg/kg then methadone 0 mg/kg (vehicle)
[11] = plasma noribogaine, single oral 3 mg
[12] = plasma noribogaine, single oral 10 mg
[13] = plasma noribogaine, single oral 30 mg
[14] = plasma noribogaine, single oral 60 mg
[15] = plasma noribogaine glucuronide after single oral 30 mg noribogaine
[16] = plasma noribogaine glucuronide after single oral 60 mg noribogaine

CCC(=O)C(CC(C)N(C)C)(c1ccccc1)c1ccccc1 (centres unmarked) [Methadone, reference compound]
Urinary excretion (percentage of a dose) [1]: 5-50% | LD50 ([2]; after 0 mg/kg of noribogaine): 68.2 mg/kg | LD50 ([2]; after 50 mg/kg of noribogaine): 29.7 mg/kg | LD50 ([2]; after 150 mg/kg of noribogaine): 8.86 mg/kg | Number Dead after Methadone (male Sprague Dawley rats; oral, noribogaine 0 mg/kg then methadone 1 mg/kg (table; b148: 10 mg/kg)): 0 | Number Dead after Methadone (male Sprague Dawley rats; oral, noribogaine 0 mg/kg then methadone 3 mg/kg (table; b148: 30 mg/kg)): 1 | Number Dead after Methadone (male Sprague Dawley rats; oral, noribogaine 0 mg/kg then methadone 5 mg/kg (table; b148: 50 mg/kg)): 3 | Persistence of slight languid behavior (male Sprague Dawley rats; oral, methadone alone at 10 mg/kg): 1.75 h | Postdose observations (male Sprague Dawley rats; oral, methadone alone at 50 mg/kg): prostrate, had tremors, shallow respirations | Persistence of adverse observations following the methadone dose (male Sprague Dawley rats; oral, methadone at doses of 30 and 50 mg/kg): 3 h | Postdose observations (male Sprague Dawley rats; oral, within one hour following methadone alone at 10 and 30 mg/kg): slight ataxia, salivation, hunched posture, and languid behavior

CC[C@H]1C[C@H]2C[C@H]3c4[nH]c5ccc(O)cc5c4CCN(C2)[C@@H]13 [Noribogaine]
Pupillary constriction (pupil diameter) [3]: no evidence of pupillary constriction | Analgesic effect in the cold pressor test [4]: no analgesic effect | Number of adverse events reported ([5]; 3 mg dose group, two subjects): five | Number of adverse events reported ([5]; 10 mg dose group, single subject): one | Number of adverse events reported ([5]; 30 mg dose group, single subject): one | Adverse events, Mild ([5]; Dose 3 mg): Dizziness; also recorded: Epistaxis; also recorded: Headache; also recorded: Back pain | Adverse events, Moderate ([5]; Dose 3 mg): Headache | Adverse events, Mild ([5]; Dose 10 mg): Headache | Adverse events, Mild ([5]; Dose 30 mg): Headache | Single increase in QTcF ([5]; one subject dosed with 10 mg, 24 hours post-dosing): > 60 ms | Oximetry, capnography, respiratory rate ([5]; single oral 3-60 mg): no changes in oximetry or capnography, or changes in respiratory rate | Vital signs and safety laboratory tests ([5]; single oral 3-60 mg): no changes in vital signs or safety laboratory tests of note | QTcF values ([5]; single oral 3-60 mg, at any time): ≤ 500 ms | Therapeutic activity ([6]; 60 mg to 180 mg, inverted-U curve): therapeutic activity at all concentrations | Estimated serum noribogaine level at which significant withdrawal symptoms return and OST is resumed ([6]; 120 mg presumed treated patients, estimated from FIG. 4 profile): 50 to 60 ng/mL | Average time to resumption of OST ([6]; 180 mg, 6 presumed (imputed) noribogaine-treated patients): approximately 11.4 hours | Time to resumption of OST ([6]; (putatively) administered 60 mg noribogaine): 9.6 h | Average time to resumption of opioids ([6]; second cohort, blinded: single oral 120 mg noribogaine (5 patients) or placebo (3)): approximately 22 hours | Adverse effects, including hallucinatory effects ([6]; single oral 60 mg or 120 mg): No adverse effects | Change in the QT interval prolongation ([7]; 180 mg): above 30 ms | Mean prolongation of the QT interval ([7]; first cohort (60 mg noribogaine or placebo)): less than 10 ms | Mean prolongation of the QT interval ([7]; second cohort (120 mg noribogaine or placebo)): less than 40 ms | pKi (mu receptor): 5.58 | Number Dead after Methadone (male Sprague Dawley rats; [9]): 0 | Number Dead after Methadone (male Sprague Dawley rats; [10]): 0 | Number Dead after Methadone (male Sprague Dawley rats; oral, noribogaine 150 mg/kg then methadone 0 mg/kg (vehicle), listed as noribogaine): no deaths | Postdose observations (male Sprague Dawley rats; oral, approximately 5 hours following noribogaine at 50 mg/kg, a few animals): languid behavior and tremors involving the entire body | Postdose observations (male Sprague Dawley rats; oral, approximately 5 hours following noribogaine at 150 mg/kg): Salivation, languid behavior, and ataxia | Postdose observations (male Sprague Dawley rats; oral, following noribogaine 50 and 150 mg/kg): slight ataxia, salivation (slight or severe), and hunched posture | Percentage of animals with observations of ataxia and salivation (male Sprague Dawley rats; oral, noribogaine 50 mg/kg): 30-40% | % Dead after Methadone (male Sprague Dawley rats; [9]): 0% | Percentage of animals with observations of ataxia and salivation (male Sprague Dawley rats; oral, noribogaine 150 mg/kg): 60-70% | % Dead after Methadone (male Sprague Dawley rats; [10]): 0% | Persistence of observations following dosing (male Sprague Dawley rats; oral, noribogaine 50 and 150 mg/kg, before methadone): up to 4 hours | Persistence of adverse observations following dosing (male Sprague Dawley rats; oral, noribogaine alone): 6.5 to 7 h | Mortality (male Sprague Dawley rats; oral, noribogaine at doses of 0, 50, and 150 mg/kg followed by the interaction article vehicle): no mortality | Effect on mortality associated with oral methadone (male Sprague Dawley rats; oral noribogaine at doses of 50 and 150 mg/kg): potentiates the mortality | Dose-proportionality of Cmax and AUC ([8]; noribogaine, 3-60 mg, linear regression): increased linearly with dose | Time of peak concentrations after oral dosing ([8]; noribogaine, across dose groups 3-60 mg): 2 to 3 h | CL/F ([8]; noribogaine, single oral 3 mg): 41.4 (7.0) L/h | CL/F ([8]; noribogaine, single oral 10 mg): 42.3 (12.0) L/h | CL/F ([8]; noribogaine, single oral 30 mg): 46.9 (16.4) L/h | CL/F ([8]; noribogaine, single oral 60 mg): 34.0 (11.4) L/h | AUC0-216 [8, 11]: 72.2 (13.2) ng · hr/ml | Cmax [8, 11]: 5.2 (1.4) ng/ml | Tmax [8, 11]: 1.9 (0.6) hr | t1/2 [8, 11]: 40.9 (8.7) hr | AUC0-216 [8, 12]: 251.4 (78.5) ng · hr/ml | Cmax [8, 12]: 14.5 (2.1) ng/ml | Tmax [8, 12]: 2.9 (1.8) hr | t1/2 [8, 12]: 49.2 (11.5) hr | AUC0-216 [8, 13]: 677.6 (221.1) ng · hr/ml | Tmax [8, 13]: 1.8 (0.6) hr | t1/2 [8, 13]: 27.6 (7.0))^ hr | AUC0-216 [8, 14]: 1935.4 (725.4) ng · hr/ml | Tmax [8, 14]: 2.4 (0.6) hr | t1/2 [8, 14]: 29.1 (9.3) hr

CC[C@H]1CC2C[C@H]3c4[nH]c5ccc(OC)cc5c4CCN(C2)C13 [ibogaine, reference compound]
pKi (mu receptor): 4.96

CC=C1N(C)C(C)CC1(c1ccccc1)c1ccccc1 (centres unmarked) [EDDP, 2-ethylidene-1.5-dimethyl-3.3diphenylpyrrolidine]
Urinary excretion (percentage of a dose) [1]: 3-25%

CC[C@H]1C[C@@H]2C[C@H]3c4[nH]c5ccc(OC6OC(C(=O)O)C(O)C(O)C6O)cc5c4CCN(C2)[C@@H]13 (some centres unmarked) [Noribogaine glucuronide]
Proportion of noribogaine glucuronide Cmax and AUC relative to noribogaine ([8]; both dose groups (30 mg, 60 mg)): 3-4% | AUC0-216 [8, 15]: 25.7 (9.1) ng · hr/ml | AUC0-∞ [8, 15]: 25.8 (9.3) ng · hr/ml | Cmax [8, 15]: 1.8 (0.6) ng/ml | Tmax [8, 15]: 3.0 (0.6) hr | t1/2 [8, 15]: 20.6 (4.9) hr | AUC0-216 [8, 16]: 65.0 (21.5) ng · hr/ml | AUC0-∞ [8, 16]: 67.1 (21.9) ng · hr/ml | Cmax [8, 16]: 4.1 (1.2) ng/ml | Tmax [8, 16]: 3.8 (1.2) hr | t1/2 [8, 16]: 23.1 (3.0) hr | Time of peak concentrations after noribogaine dosing ([8]; plasma noribogaine glucuronide, 30 mg and 60 mg dose groups): 3 to 4 h | Time by which detected in all subjects ([8]; plasma noribogaine glucuronide, 30 mg and 60 mg noribogaine dose groups): ≤ 0.75 h

Reference: patent publication US9744174B2 (DemeRx, Inc., priority 2013, dated 2017)
